From patent EP4050002A1, “ANTI-PROLIFERATIVE AGENTS” (First Health Pharmaceuticals B.V., priority 2021, dated 2022)

Columns and labels:
[1] = Systemic and organ toxicity; format: in vivo, mice
Experimental: […] For blood withdrawal, mice were anesthetized using gaseous anesthesia and 0.2 to 0.3 ml of blood samples were collected in Li-Heparin containing tubes at the time points above indicated, stored on ice, centrifuged within 15 minutes to separate plasma at 1540 ref (5000 rpm) at 4°C for 10 minutes; plasma was separated and transferred to new tubes.
At study closure, animals were sacrificed and tumor and tissues removed for further studies of distribution and morphology. Mice from the efficacy study were anesthetized using gaseous anesthesia and blood samples collected in Li-Heparin containing tubes by intracardiac puncture, stored on ice, centrifuged within 15 minutes to separate plasma at 1540 ref (5000 rpm), at 4°C for 10 minutes; plasma was separated and transferred to new tubes. After blood collection, tissues for bio-analyses were separated, washed in PBS, dried and frozen at -80±10°C until homogenization.
Tissues for histological analyses were washed in PBS and paraffin embedded soon after separation. Dehydration and Haematoxylin and Eosin (H&E) staining was performed on 5 µm thick sections followed by microscopic examination with Nikon Ni-e microscope (Nikon Instruments, Calenzano, Italy).

PBMC = assay: Cytotoxicity in primary cells, ATP-based method; format: cell-based, human
Experimental: The non-specific toxicity of the compounds is evaluated in non-tumor immortalized cells with cell count and / or MTS methods, and in primary Peripheral Blood Mononuclear Cells (PBMC) with the ATP-based method.
Primary human Peripheral Blood Mononuclear Cells (PBMC) are incubated at 37°C and 5% CO2 for the viability assay with CellTiter Glo 2.0 kit, an ATP-based method (Promega, Catalog number: G9241). 48 h prior to the assay, 2 µg/ml of phytohemagglutinin-A (PHA) are added to PBMC culture and cells are incubated for 48 h at 37°C and 5% CO2. PBMC are centrifuged at 300 G for 10 minutes, then re-suspended in growth medium and plated at density of 6 x 10^4 cells/well. […]
PBMC incubated with the same amount of DMSO present in the compound dilutions are used as control. After the incubation, 50 µl of cell cultures from each well are transferred in a luminescence plate after vigorous pipetting and 50 µl of CellTiter Glo 2.0 are added in each well, then the plate is incubated in the Glomax Discovery Reader (Promega, Catalog number: GM3000) following the instructions. Relative luminescence units (RLU) calculated in each well is elaborated with GraphPad software: 100% viability is determined as the mean RLU value measured in the wells containing untreated PBMCs. IC50 was calculated by GraphPad Prism 8.0 software.

Plasma stability = format: in vitro ADME, CD1 mice; details: Mouse plasma
Experimental: Plasma previously separated from whole blood in EDTA-treated tubes and frozen; blood samples obtained from healthy volunteers, Sprague Dawley rats and CD1 mice, was thawed at room temperature and centrifuged at 1400x RCF 4°C, for 15 minutes. Approximately 90% of the clear supernatant fraction was transferred to a separate tube and was used for the assay.
Stocks (1 mM and 25 µM) of test compound were prepared in acetonitrile:water (50:50 v/v). Plasma samples were heat inactivated at 54°C. 3 µl of 25 µM test compound were added to 72 µl of heat inactivated plasma. A 50 µL aliquot of the mixture was taken and crashed with 200 µl of acetonitrile containing Telmisartan 100 ng/ml as internal standard and was further processed along with other time points: 10, 30 60 and 120 minutes.
Final working stock of 1 µM was prepared by diluting 12 µl of 25 µM stock in 288 µl of plasma. The obtained solution (300 µl) of plasma containing the test compound was incubated for […] at 37°C in shaker water bath with gentle shaking. 50 µl aliquot of sample at 10, 30, 60 and 120 min was precipitated immediately with 200 µl of acetonitrile containing internal standard and centrifuged at 4000x RCF, 4°C for 20 minutes. 150 µl of supernatant was diluted with 150 µl of water and analyzed by LC-MS/MS.
The % remaining of the test substance was calculated as: (Peak Area ratio at time (min))/(Peak Area Ratio at 0 min) ^∗ 100
The API400 MS and Agilent 1260 Infinity LC were used. Mobile Phase included 10mM Ammonium acetate with 0.1% formic acid in MilliQ water, and Methanol. The column was Phenomenex, KINETIC EVO C18 100A 5u 50^∗4.6 mm, 10 µl injection volume.

CCCCc1cn(-c2ccc(-c3nnc(-c4ccccc4C(F)(F)F)o3)cc2)nn1 [Compound 5]
treatment related morphological changes in brain, liver, lung, spleen and kidney ([1]; 6 weeks of repeated treatment, I.P. 45mg/Kg every 48 hours): No treatment related morphological changes
systemic toxicities or altered behavior ([1]; I.P. 10 mg/kg single administration, mice observed for 24 hours): no toxicities
systemic toxicities or altered behavior ([1]; I.P. 45 mg/kg double administration, mice observed for 48 hours): no toxicities
systemic toxicities or altered behavior ([1]; I.P. 45 mg/kg every 48 hours, 6 weeks, including 1 week follow up): no toxicities
systemic toxicities or altered behavior ([1]; I.P. 45 mg/kg single administration, mice observed for 24 hours): no toxicities
systemic toxicities or altered behavior ([1]; I.T. 0.08 mg/kg single administration, mice observed for 24 hours): no toxicities
systemic toxicities or altered behavior ([1]; I.V. 1 mg/kg single administration, mice observed for 24 hours): no toxicities
systemic toxicities or altered behavior ([1]; P.O. 45 mg/kg single administration, mice observed for 24 hours): no toxicities
IC50 (PBMC; Homo sapiens, PBMC, 72 hours of incubation, ATP-based method): 200 µM
toxicity (PBMC; primary human cells (Table 16)): above 100 µM
% Remaining ± SD (Plasma stability; 0 minutes): 100.0 ± 1.8%
% Remaining ± SD (Plasma stability; 10 minutes): 117.2 ± 8.6%
% Remaining ± SD (Plasma stability; 30 minutes): 111.1 ± 0.3%
% Remaining ± SD (Plasma stability; 60 minutes): 108.2 ± 4.8%
% Remaining ± SD (Plasma stability; 120 minutes): 123.2 ± 26.5%
